Measured values reported in patent US20200085839A1, “COMBINATION OF IMMUNOTHERAPEUTICS AND BISFLUOROALKYL-1,4-BENZODIAZEPINONE COMPOUNDS FOR TREATING LYMPHOMAS” (Ayala Pharmaceuticals Inc., priority 2018, published 2020).

Assays:
[1] = test system: RPMI-8226 human multiple myeloma cell line; assay: Combination index (Chou and Talalay) of Compound (1) with BCMA-CAR-T; format: cell-based; details: Compound (1) 10-80 nM with BCMA-CAR-T 10^9 cells
Method: (§1) Drug interaction analysis and the confirmation of synergism is determined by the method of Chou and Talalay. Linear regression analysis of dose-response data is performed using Calcusyn 1.2 software (Biosoft, Cambridge, United Kingdom) to calculate a combination index (CI) for each individual drug combination. To ensure valid statistical analysis, only experimental data for which the linear correlation coefficient of the median-effect plot was more than 0.9 are included. CI values are defined as: […]
(§2) The combination of Compound (1) with BCMA-CAR-T in models of human multiple myeloma in vitro lead to synergistic cell killing. Specifically, Compound (1) when used at concentrations between 10-80 nM (concentrations that are relevant in patients) in combination with BCMA-CAR-T at concentrations of 10^9 cells produce synergistic cell killing in the U266 and RPMI-8226 human multiple myeloma cell lines.

[2] = test system: U266 human multiple myeloma cell line; assay: as above; format: cell-based; details: Compound (1) 10-80 nM with BCMA-CAR-T 10^9 cells
Method: as §1, §2

[3] = test system: U266 human myeloma cell line cells in NSG mice; assay: Anti-tumor activity of BCMA-targeted CAR-T cells and Compound (1) in vivo; details: combination with 1×10^6 BCMA targeted CAR-T cells IV on day 4; imaging day 11
Method: BCMA targeted CAR-T cells mediate an anti-myeloma immune response. 1×10^7 U266 human myeloma cell line cells are injected IV into NSG mice on day 0. On day 4, a) 1×10^6 BCMA targeted second generation CAR-T cells, Compound (1) or both are injected IV.

[4] = test system: HT cells (DLBCL); assay: Soluble (shed) BCMA by ELISA; format: cell-based, human
Method: (§3) […] cell lines, comprising 9 subtypes of lymphomas (see Table 1), were seeded at 1×10^5 cells/well in a total volume of 250 μl into a 96-well plate. The cells were cultured in RPMI medium supplemented with 10% FCS. Compound (22) was added to the cell cultures at a concentration of 10 μM, 1 μM, 100 nM, 10 nM, 1 nM, 100 pM, 10 pM, 1 pM, and 100 fM, and cell lines (8 from Hadassah Medical Center, 31 from Eurofins) were incubated at 37° C. for 24 hours with Compound (22). Following incubation, the cells were collected and BCMA levels were evaluated on the cell surface for cell-bound BCMA. Cells were stained with an anti-BCMA antibody (PE anti-human 19F2 BCMA, Biolegend), and cell surface BCMA levels were determined by FACS analysis (Mean Fluorescence Intensity. Soluble BCMA levels were analyzed by ELISA (Human BCMA/TNFRSF17 DuoSet kit: R&D Systems).

[5] = test system: MC-116 cells (B-cell Lymphoma); assay: Soluble (shed) BCMA by ELISA; format: cell-based, human
Method: as §3

[6] = test system: NU-DUL-1 cells (B-cell Lymphoma); assay: Soluble (shed) BCMA by ELISA; format: cell-based, human
Method: as §3

[7] = test system: TUR cells (Histiocytic Lymphoma); assay: Soluble (shed) BCMA by ELISA; format: cell-based, human
Method: as §3

[8] = Homo sapiens, read-out: Shed BCMA (pg/ml) EC50

Row | SMILES | cell killing, combination index (CI) class [1] | cell killing, combination index (CI) class [2] | anti-tumor response, imaging of tumors [3] | Shed BCMA (pg/ml) % Reduction [4] | soluble BCMA 1 nM Compound (22) ([4]; 1 nM, 24 h) | soluble BCMA 10 nM Compound (22) ([4]; 10 nM, 24 h) | soluble BCMA 100 nM Compound (22) ([4]; 100 nM, 24 h) | EC50 [4, 8] | EC50 ([5]; Homo sapiens, MC116, MC-116, read-out: Shed BCMA (pg/ml) EC50) | soluble BCMA 1 nM Compound (22) ([5]; MC116, 1 nM, 24 h) | soluble BCMA 10 nM Compound (22) ([5]; MC116, 10 nM, 24 h) | soluble BCMA 100 nM Compound (22) ([5]; MC116, 100 nM, 24 h) | Shed BCMA (pg/ml) % Reduction ([5]; MC-116) | Shed BCMA (pg/ml) % Reduction [6] | EC50 [6, 8] | Shed BCMA (pg/ml) % Reduction [7] | EC50 [7, 8]
1 | CN1C(=O)[C@@H](NC(=O)[C@H](CCC(F)(F)F)[C@H](CCC(F)(F)F)C(N)=O)N=C(c2ccccc2)c2ccccc21 [Compound 1, (2R,3S)—N-((3S)-1-methyl-2-oxo-5-phenyl-2,3-dihydro-1H-1,4-benzodiazepin-3-yl)-2,3-bis(3,3,3-trifluoropropyl)succinamide] | synergistic (0.3 < CI ≤ 0.9) | synergistic (0.3 < CI ≤ 0.9) | improved anti-tumor response compared to either BCMA targeted CAR-T or Compound (1) treatment alone | – | – | – | – | – | – | – | – | – | – | – | – | – | –
2 | Cc1cccc2c1NC(=O)[C@@H](NC(=O)[C@H](CCC(F)(F)F)[C@H](CCC(F)(F)F)C(N)=O)N=C2c1cccc(F)c1 [Compound (22), (2R,3S)—N-((3S)-5-(3-fluorophenyl)-9-methyl-2-oxo-2,3-dihydro-1H-1,4-benzodiazepin-3-yl)-2,3-bis(3,3,3-trifluoropropyl)succinamide] | – | – | – | 98% | 389.4 | 99.4 | 38 | 1 nM | 6.5 nM | 1810.6 | 414.8 | 303.7 | 76% | 91% | 1 nM | BLQ | > 10 µM
